# Data: US20200237871A1, “METHODS FOR MITIGATING LIVER INJURY AND PROMOTING LIVER HYPERTROPHY, REGENERATION AND CELL ENGRAFTMENT IN CONJUNCTION WITH RADIATION AND/OR RADIOMIMETIC TREATMENTS” (Janssen Pharmaceutica NV, priority 2019, published 2020)
# Entries after “also recorded” stand apart in the source; their conditions may differ.
# Legend:
# Assay type in all cases: in vivo, mouse
# [1] = system: cirrhotic mice; assay: Extent of radiation induced liver disease (RILD) by SPECT-CT in cirrhotic mice (Example 5); conditions: 50 Gy HIR, RWJ-800088 with LSEC transplants
# Protocol: Male C57BL/6 DPPIV knockout male mice (10-14 weeks) were injected intraperitoneally with carbon tetrachloride (CCl4) twice a week for a minimum of 12 weeks until a maximum of when 5 out of 30 mice perish from the CCl4 injection. Immediately after, the animals were randomly distributed into the experimental groups.
# Image-guided external beam irradiation was performed using a small animal radiation research platform (SARRP, Xstrahl Inc., Suwanee, Ga.). Mice were given gastrografin contrast through gavage to improve visualization of the gastrointestinal (GI) tract. […]
# The methods were identical to Experiment 4 as described above with the exception that the CCl4 dose was increased to 20% in olive oil over 12 weeks. To evaluate the effect of RWJ-800088+Liver Sinusoidal Endothelial Cells (LSEC), RWJ-800088+Plerixafor (a selective inhibitor of CXCR4 administered pre- and post-irradiation) on radiation induced liver disease as measured by SPECT-CT in cirrhotic mice after single hepatic irradiation (HIR) at 50 Gy. […]
# The dosing solution of RWJ-800088 was prepared as described in Experiment 4. […] The number of viral particles and infectious units' ratio was determined by infecting 293 cells at various dilutions, followed by immunocytochemical staining for adenoviral hexons. The infectious titer was calculated from the number of plaques formed per 1,000 viral particles. […]
# [2] = system: Hemophilia A mice; assay: Survival after tail bleed challenge (Example 6); conditions: HIR+LSECs+drug, control Hemophilia A mice 100% died within 5 days
# From the text: 8-16-week-old male C57/BL6 mice, 8-16-week-old female and male B6129SF2/J mice (donor for isolating LSECs) and 8-16-week-old female and male Hemophilia mice (F^8tm1Kaz) mice were used in this study. Mice were housed in groups of up to 5 in micro-isolator cages on stainless steel racks (Allentown, Inc., Allentown, N.J.) with a total floor space of 500 cm^2. The cages utilized an external water bottle and a dual feeder rack (Fisher Scientific, Hampton, N.H.). These cages were stored in the storage rack which provided temperature, humidity, and ventilation control to each individual cage (Allentown, Inc.). Bed-o'Cobs ⅛″ (Fisher Scientific) were used as bedding material in each cage.
# The methods were identical to Experiment 5 as described above; including the preparation of test articles (solutions of RWJ-800088 and AdHGF), isolation and transplant of LSECs, and Hepatic irradiation.
# The livers of mice were irradiated at 50 Gy by using an X-ray irradiator (SARRP). At 24 hours post-irradiation, the LSECs (1×10^6 cells/mouse) were injected to the mouse through tail vein. An incision was made in the tail from each mouse at day 60 after hepatic irradiation (HIR) and subjected to the bleeding test.
# RWJ-800088 (300 μg/kg) was administrated subcutaneously at 10 min after LSEC transplantation. AdHGF at 1×10^9 PFU/mouse was administrated intraperitoneally at 24 hours after LSEC transplantation. […]
# [3] = system: DPPIV KO mice; assay: Engraftment of transplanted LSECs and hepatocytes by DPPIV immunostaining after HIR (Example 7); conditions: Study A
# Protocol: 8-12-week-old male Di-peptyl peptidase IV knockout (Dppiv^−/−) mice and 8-12-week-old male C57BL/6 mice were used in this study.
# The methods were identical to Experiment 5 as described above; including the preparation of test articles (solutions of RWJ-800088), isolation and transplant of LSECs, and Hepatic irradiation. In addition, Romiplostim was purchased from pharmacy and came in 250 μg powder. It was reconstituted per manufacturers description using solvent for solution for injection. After reconstitution, a deliverable volume of 0.5 mL solution contained 250 μg of romiplostim (500 μg/mL).
# Animals were weighed in the beginning of the experiment.
# The mice were transplanted with DPPIV^+ 5×10^5 liver sinusoidal endothelial cells (LSECs) intrasplenically 4 or 5 days later. The mice were then injected with 300 μg/kg of RWJ-800088 or Romiplostim intraperitoneally 10 minutes after LSEC transplantation as shown in Table 7.
# The mice were then monitored until they made a full recovery and returned to the cage. The mice were followed for 2 and 5 months and necropsied. The liver was excised and prepared for the frozen section. The immunostaining of DPPIV activity was performed to examine the repopulation of the transplanted DPPIV^+ cells in the liver. […]
substance,measurement,setting,value
methoxypolyethyleneglycol20000-propionyl-L-Isoleucyl-L-Glutamyl-Glycyl-L-Prolyl-L-Threonyl-L-Leucyl-L-Arginyl-L-Glutaminyl-L-2-Naphthylalanyl-L-Leucyl-L-Alanyl-L-Alanyl-L-Arginyl-Sarcosyl-Ne-(methoxypolyethyleneglycol20000-propionyl-L-Isoleucyl-L-Glutamyl-Glycyl-L-Prolyl-L-Threonyl-L-Leucyl-L-Arginyl-L-Glutaminyl-L-2-Naphthyl alanyl-L-Leucyl-L-Alanyl-L-Alanyl-L-Arginyl-Sarcosyl-)-Lysinamide [RWJ-800088],protection against RILD (SPECT-CT),[1],trend toward protection against RILD; also recorded: protected against RILD
same,survival 30 days post tail bleed challenge,[2],100%
same,repopulation of LSECs in the irradiated liver tissue (DPPIV immunostaining),"[3]; 2 months after HIR, 50 Gy, LSECs 4 or 5 days after HIR, 300 μg/kg intraperitoneally 10 minutes after LSEC transplantation",repopulation of LSECs in the irradiated liver tissue was observed
same,DPPIV staining of liver lobes,"[3]; 5 months after HIR, two surviving mice (mouse 1: median, right, left lobes; mouse 2: median and right lobes), listed as RWJ-80088",extensively positive staining; also recorded: strong DPPIV staining
same,DPPIV staining of 4 different liver lobes,"[3]; one mouse at 2 months after HIR, median lobe least area covered",All 4 lobes showed positive staining
